The text below walks through data of patent US20180346879A1, “GENERATION OF MUSCLE-LINEAGE CLELS FROM STEM CELLS” (GENEA IP HOLDINGS PTY LIMITED, priority 2015, published 2018).

Type in all cases: cell-based
Experiment [1] has as its system GENEA019 human embryonic stem cells. Briefly: Myogenic induction with Wnt pathway modulators, Hoechst and Pax3 staining. The following applies: modulator 1 μM in medium with Y-27632 10 μM and Alk5 inhibitor 2 μM; 9 days. As to the method: GENEA019 human embryonic stem cells were plated in Skeletal Muscle Cell Basal Medium (Lonza) with Skeletal Muscle Cell Growth Supplement (Lonza) and horse serum (5%) supplemented with Y-27632 (10 μM) and Alk5 inhibitor (2 μM), and a series of Wnt pathway modulators, including CHIR99021 (1 μM), AZD1080 (1 μM), IWP-L6 (1 μM), D4476 (1 μM), and AT13148 (1 μM). After 9 days in culture, cells were fixed and stained for DNA (Hoechst) and Pax3.

Experiment [2] has the same test system. Briefly: Myogenic induction with or without LRRK2-IN-1, Hoechst and Pax3 staining. The following applies: LRRK2-IN-1 1 μM added to medium with Y-27632, CHIR99021, Alk5 inhibitor; 9 days. The text has this:
(§1) After 9 days, cells were fixed and stained for DNA (Hoechst) and Pax3.

The subject of experiment [3] is GENEA002, GENEA015, and GENEA019 human embryonic stem cell lines. The experiment in a line: Myogenic induction in MCDB media with optional THI, FGF2 or LRRK2-IN-1, Hoechst, Pax3 and Pax7 staining. Conditions: 4 days; for cell proliferation (FIGS. 15A-F) / yield of Pax3/7-positive cells (FIGS. 15A-F): 5 μm THI or 5 ng/L FGF2 added to MCDB media, collagen I. On the procedure:
GENEA002, GENEA015, and GENEA019 human embryonic stem cell lines were plated on collagen I-coated culture dishes in the following culture media:
4) MCDB FA ITS: same as MCDB FA with insulin/transferrin/selenium (ITS, 100×)
A control compound, 5 μm THI (2-acetyl-4(5)-(1,2,3,4-tetrahydroxybutyl)imidazole), or […] FGF2 was optionally added to the media. The LRRK2 inhibitor, LRRK2-IN-1 (1 μM), was optionally added to MCDB MinFA medium. Cells were fixed after 4 days and stained for DNA (Hoechst), Pax3 and Pax7.

The subject of experiment [4] is GENEA019 and GENEA067 human embryonic stem cell lines. The experiment in a line: Myogenic induction with or without LRRK2-IN-1, phase contrast microscopy. Conditions: LRRK2-IN-1 1 μM, suppresses flat contaminating cells with large cytoplasms.
Text: as §1
The same experiment was repeated using GENEA019 and GENEA067 human embryonic stem cell lines. Cell populations were observed by phase contrast microscopy.

Experiment [5] deals with GENEA015 and GENEA019 human embryonic stem cells. Briefly: Kinase inhibitor dose range in myogenic induction, Hoechst and Pax7 staining. The following applies: dose range from 10 nM to 1 μM; 4 days; medium with Y-27632, CHIR99021, Alk5 inhibitor. On the procedure:
In addition to LRRK2-IN-1, various other kinase inhibitors were tested in a dose range from 10 nM to 1 μM. Cells were fixed after 4 days and stained for DNA (Hoechst) and Pax7.

For experiment [6], the system named is GENEA019 and GENEA067 human embryonic stem cells. Briefly: Differentiation with continuous ROCK inhibition or with ROCK inhibitor removed after attachment. The following applies: Y-27632 (10 μM) removed one day after plating, compared with continuous presence. As to the method: Cells were either differentiated further in the same medium with media changes every other day, or one day after plating and after cells had attached, cells were changed to and maintained in the same culture medium but without the ROCK inhibitor, Y-27632 (10 μM).

In experiment [7] the test system is GENEA019 human embryonic cells. The experiment in a line: Myogenic induction on extracellular matrix molecules (collagen I, laminins), Hoechst and Pax7 staining. Conditions: plate coating; medium with Y-27632 10 μM, CHIR99021 3 μM, Alk5 inhibitor 2 μM; 9 days. The text has this:
After 9 days, cells were fixed and stained for DNA (Hoechst) and Pax7.

Regarding `N#Cc1ccc2[nH]c(O)c(-c3ccc(CN4CCOCC4)cn3)c2c1` [AZD1080], the “myogenic induction / Pax3-positive cells (FIGS. 17A and 17B)” value (“myogenic induction / Pax3-positive cells” below) in experiment [1] is “promoted myogenic induction and resulted in Pax3-positive cells”.

As for `COc1cc(C(=O)N2CCC(N3CCN(C)CC3)CC2)ccc1Nc1ncc2c(n1)N(C)c1ccccc1C(=O)N2C` [LRRK2-IN-1], in experiment [2], the “cell proliferation (FIG. 13A)” value is on record as “promoted cell proliferation” and the “expression of Pax3 (FIG. 13B)” value is on record as “increased expression of Pax3”. In experiment [3] (LRRK2-IN-1 1 μM added to MCDB MinFA medium), the “proportion of Pax3-positive and Pax7-positive cells (FIGS. 15A-F)” value is reported as “strong increase”. Further, the “purity of cell populations (FIG. 14)” value in experiment [4] is on record as “purer cell populations”. The “formation of Pax7-positive cells (FIGS. 16A and 16B)” value in experiment [5] was “strongly promoted the formation of Pax7-positive cells in a dose-dependent manner”.

For the compound `Cc1c[nH]c(-c2cnc(NCCNc3ccc(C#N)cn3)nc2-c2ccc(Cl)cc2Cl)n1` [CHIR99021], the “myogenic induction / Pax3-positive cells” value in experiment [1] was “promoted myogenic induction and resulted in Pax3-positive cells”.

On to `C[C@@H](N)[C@H]1CC[C@H](C(=O)Nc2ccncc2)CC1` [Y-27632], for which, in experiment [6], the “cell growth without continuous ROCK inhibition (FIG. 18)” value was “significantly growth retarded” and the “cell population homogeneity during differentiation without continuous ROCK inhibition” value is reported as “highly heterogeneous cell populations”.

For the compound “laminin 521: extracellular matrix molecule coating tissue culture plates”, in experiment [7], the “Pax7-positive satellite-like cell sub population (FIG. 12A)” value was “favor a satellite-like cell sub population that is Pax7-positive” and the “cell proliferation (FIG. 12B)” value is given as “promote cell proliferation”.

Regarding `CC(=O)c1ncc(C(O)C(O)C(O)CO)[nH]1` (stereo not shown) [THI, 2-acetyl-4(5)-(1,2,3,4-tetrahydroxybutyl)imidazole], in experiment [3], the “cell proliferation (FIGS. 15A-F)” value is recorded as “neither THI nor FGF2 enhanced” and the “yield of Pax3/7-positive cells (FIGS. 15A-F)” value is on record as “neither THI nor FGF2 enhanced”.

On to “FGF2: fibroblast growth factor family member”, for which, in experiment [3], the “cell proliferation (FIGS. 15A-F)” value is “neither THI nor FGF2 enhanced” and the “yield of Pax3/7-positive cells (FIGS. 15A-F)” value is “neither THI nor FGF2 enhanced”.

As to `O=C(CSc1nc2c(c(=O)n1-c1ccccc1)SCC2)Nc1ccc(-c2ccccc2)cn1` [IWP-L6], the “myogenic induction / Pax3-positive cells” value in experiment [1] is recorded as “blocked myogenic induction”.
